The results in this text go back to US8883856B2, “Compositions and methods for the treatment of inflammatory diseases using topoisomerase inhibitors” (priority 2000, dated 2014).

Structures are written as SMILES. Where two headings read alike, the source gives them in different places.

In one series the test system is stromelycin gene. Briefly: IL-1 induced stromelycin gene expression in chondrocytes. The format is cell-based, calf. From the text: This assay measures the levels of RNA for the two metalloproteinases, collagenase and stromelysin. Over-expression of these genes results in excessive synthesis and secretion of these two enzymes from articular chondrocytes and may represent part of the pathophysiology of rheumatoid arthritis. Agents that inhibit over-expression of collagenase and stromelysin can be antiarthritc agents. […] Proteoglycan gene expression is part of the normal physiology of chondrocytes.
Primary chondrocyte culture was freshly isolated from calf cartilage. The cells were plated (at 2.5×10^6/mL) in 100×20 mm culture dishes and incubated in Ham's F12 medium containing 5% fetal bovine serum (FBS) overnight at 37° C. The cells were starved with serum-free medium overnight. […] Then IL-1 (20 ng/mL) was added to each plate and the plates were incubated for an additional 18 hours. Total RNA was isolated by the acidified guanidine isothiocyanate method and subjected to electrophoresis on a denatured gel. Denatured RNA samples (15 ug) were analyzed by gel electrophoresis in a 1% denaturing gel, transferred to a nylon membrane, and hybridized respectively with the ^32P-labelled collagenase cDNA probe, ^32P-labelled stromelycin cDNA probe, ^32P-labelled proteoglycan cDNA probe and ^32P-labelled glyceraldehyde phosphate dehydrogenase (PAGDH) cDNA. The PAGDH levels acted as an internal standard to ensure roughly equal loading. The experimental results on X-ray films were scanned and analyzed with HP ScanJet.

The test system of series [1] is smooth muscle cells (A7r5 rat embryonic thoracic aorta). Briefly: MTT proliferation/cytotoxicity assay, smooth muscle cells. The format is cell-based. The following applies: read-out: inhibitory concentration that gave 50% effect on proliferation (IC50), smooth muscle cells. The protocol: (§1) Proliferation was determined using the MTT proliferation/cytotoxicity assay.
(§2) On day one, 1500-2000 smooth muscle cells (A7r5 rat embryonic thoracic aorta) or synoviocytes (HIG.82 rabbit) were plated per well on a 96-well plate, leaving the first column free of cells (blank). The plate was placed back into the 37° C., CO2 incubator. The following day camptothecin was added at various concentrations. No drugs were added to the first column (blank) and the second column (untreated column) for control. The cells were exposed for 24, 48, and 72 hours. At the end of the exposure period, 50 μl of dimethylthiazol diphenyltetrazolium bromide salt (MTT) dissolved in media was added and allowed to incubate for 4 hours at 37° C. The medium was then aspirated and 200 μl of dimethyl sulfoxide was added. The plate was agitated for 30 minutes and the absorbance read at 562 nm. The optical density measurement was converted to number of cells using a standard plot of optical density with known number of cells and cell viability was expressed as % growth (this value is the % of the control cells).

A short description of series [2]: In vitro drug release from polymeric formulations. The format is physicochemical.
For series [3], the system named is synoviocytes (HIG.82 rabbit). Briefly: MTT proliferation/cytotoxicity assay, synoviocytes. The format is cell-based. The following applies: Oryctolagus cuniculus, read-out: inhibitory concentration that gave 50% effect on proliferation (IC50), synoviocytes. The method, then: as §1, §2
Series [4] relates to chorioallantoic membrane of the chick embryo. Put plainly: Angiogenesis in the chick chorioallantoic membrane (CAM assay). The format is in vivo. The following applies: for number of eggs (CAM's) with antiangiogenic activity None (score 0) / number of eggs (CAM's) with antiangiogenic activity Partial (score 1-2) / number of eggs (CAM's) with antiangiogenic activity Maximal (score 3): 48 hours. From the text: Sheets of sterile waxed paper were placed onto the window that was created in the air space and were used to prevent contamination and dehydration of the egg contents. These sheets, measuring 4 cm×4 cm, were sterilized by spraying them with 70% ethanol and allowing them to dry in the laminar flow hood. […] Using 70% ethanol and Kimwipes, the entire eggshell was wiped down to help clean and sanitize the outside of the egg. Inside a laminar flow hood, the egg was held with the blunt side up and a hole was made in the blunt end of the egg by carefully cracking the shell with the end of forceps. The shell remnants were gently removed with forceps to form a hole in the blunt end. This circular hole was made as large as 2 to 3 cm in diameter without damaging the inner membrane. Once the hole was created in the shell, the inner shell membrane (which houses the egg contents) was gently torn and removed using the forceps, taking care not to damage the chorioallantoic membrane (CAM) (which houses the yolk and developing chick embryo). The hole was then covered with the sheet of sterilized parafilm wax paper by gently stretching the parafilm and then placing it around the hole. The egg was then placed in the egg rack in the incubator (37° C.) and positioned in such a way as to prevent rotation. After 6 days each egg was removed one by one from the incubator (blunt side up), and the parafilm covering the window was removed for direct access to the CAM, which originates from the hind gut of the embryo. The drug-loaded polymer was placed onto the growing capillary bed of the CAM. The egg contents were then resealed with the parafilm sheet and placed back into the 37° C. incubator. […] The values of the avascular scale describe the following: […]

The mark [5] stands for this setting: chitosan films, PBS pH 7.4, 37° C.
The mark [6] stands for this setting: ethylene vinyl acetate films, PBS pH 7.4, 37° C.
Setting [7] is: poly(L-lactic acid) microspheres, PBS pH 7.4, 37° C.
Setting [8] is: polycaprolactone paste, PBS, 37° C.
Setting [9] is: triblock copolymer/MePEG paste, PBS pH 7.4 with n-octanol, 37° C.
The mark [10] stands for this setting: summary over all concentrations tested in PCL or PCL-MePEG pellets.
[11] abbreviates: polycaprolactone microspheres, PBS pH 7.4, 37° C.

Regarding `CC[C@@]1(O)C(=O)OCc2c1cc1n(c2=O)Cc2cc3ccccc3nc2-1` [camptothecin], the “IL-1 induced stromelycin gene expression” value in the series on stromelycin gene (1×10^−7 M) was “almost completely inhibited”. Further, the IC50 came to 1.6 µM in series [1] (A7R5, 48 h) and 0.065 µM in series [3] (48 h). Further, the “effect of addition of MePEG to the PCL on release rate” value in series [2] (10% and 20% camptothecin loaded PCL paste, 20% MePEG) is “accelerated the release rate”. The drug release profile entry in series [2] (setting [5]), in series [2] (setting [6]), in series [2] (setting [7]), in series [2] (setting [8]) and in series [2] (setting [9]) was “initial burst of drug release followed by a slow sustained release” throughout. Further, the “number of eggs (CAM's) with antiangiogenic activity None (score 0)” value (“number of eggs (CAM's) … (score 0)” below) in series [4] (0.1% w/w in PCL pellet) worked out at 7; in series [4] (0.5% w/w in PCL pellet), 8; in series [4] (1.0% w/w in PCL pellet), 4; in series [4] (5.0% w/w in PCL pellet) it was 3. Also, the “number of eggs (CAM's) with antiangiogenic activity Partial (score 1-2)” value (from here on “number of eggs (CAM's) … (score 1-2)”) was found to be 1 in series [4] (0.1% w/w in PCL pellet), 12 in series [4] (0.5% w/w in PCL pellet), 6 in series [4] (1.0% w/w in PCL pellet) and 20 in series [4] (5.0% w/w in PCL pellet). Further, the results for the “inhibition of angiogenesis in the CAM, in words” value (shortened to “inhibition of angiogenesis”) in series [4] (0.5% (w/w to PCL)) and in series [4] (setting [10]) were “strong evidence of inhibition of angiogenesis” and “extensive inhibition of angiogenesis”, respectively. For the same molecule, the “number of eggs (CAM's) with antiangiogenic activity Maximal (score 3)” value (from here on “number of eggs (CAM's) … (score 3)”) in series [4] (0.5% w/w in PCL pellet) worked out at 2; in series [4] (5.0% w/w in PCL pellet), 9. The “number of CAM's with full or partial inhibition” value in series [4] (5% (w/w to PCL)) amounted to 29.

For the molecule `CC1=CC(=O)c2c(O)cccc2C1=O` [plumbagin], the “IL-1 induced stromelycin gene expression” value in the series on stromelycin gene (1×10^−5 M) was “completely inhibited”. Besides, the stromelysin expression result in the series with stromelycin gene (1×10^−6 M) is listed as “partial inhibition”. Moreover, the IC50 in series [1] (A7R5, 48 hours exposure) was 2.6 µM; in series [3] (48 hours exposure), 3.6 µM. For the same molecule, the drug release profile entry in series [2] (setting [5]), in series [2] (setting [6]), in series [2] (setting [7]), in series [2] (setting [11]), in series [2] (setting [8]) and in series [2] (setting [9]) was “initial burst of drug release followed by a slow sustained release” throughout. Moreover, the “number of eggs (CAM's) … (score 1-2)” value in series [4] (1.0% w/w in PCL pellet) is given as “Necrosis”. The “generalized cytotoxicity in the CAM” value in series [4] (in vivo) was “some evidence of necrosis in non-capillary cells and membrane thinning”. In series [4] (setting [10]), the “inhibition of angiogenesis” value is reported as “partial inhibition of angiogenesis in a number of CAM's”.

For `COc1cc([C@@H]2c3cc4c(cc3[C@@H](O[C@@H]3O[C@@H]5CO[C@@H](C)O[C@H]5[C@H](O)[C@H]3O)[C@H]3COC(=O)[C@H]23)OCO4)cc(OC)c1O` [etoposide], the “IL-1 induced stromelycin gene expression” value in the series with stromelycin gene (1×10^−5 M) is reported as “inhibited”. Moreover, the IC50 is roughly 15 µM in series [1] (A7R5, 48 hours exposure) and roughly 15 µM in series [3] (48 hours exposure). The drug release profile result in series [2] (setting [6]) and in series [2] (setting [8]) was “initial burst of drug release followed by a slow sustained release” each time. The “number of eggs (CAM's) … (score 0)” value in series [4] (4.0% w/w in PCL pellet) turned out to be 2. The “number of eggs (CAM's) … (score 1-2)” value worked out at 5 in series [4] (4.0% w/w in PCL pellet), 5 in series [4] (8.0% w/w in PCL pellet) and 9 in series [4] (15.0% w/w in PCL pellet). Moreover, the “number of eggs (CAM's) … (score 3)” value in series [4] (15.0% w/w in PCL pellet) is on record as 4. In addition, in series [4] (all etoposide pellets (4%, 8%, 15% PCL; 10% PCL-MePEG)), the “number of CAM's showing full inhibition” value is on record as “five”. The “inhibition of angiogenesis” value in series [4] (setting [10]) is “inhibited angiogenesis in almost all CAM's treated”.

On to `CC1=CC(=O)c2ccccc2C1=O` [menadione], for which, in the series on stromelycin gene (1×10^−5 M), the “IL-1 induced stromelycin gene expression” value is recorded as “inhibited”. The IC50 in series [1] (A7R5, 48 hours exposure) amounted to 8.2 µM; in series [3] (48 hours exposure), 15 µM. In addition, the drug release profile result in series [2] (setting [11]) and in series [2] (setting [8]) was “initial burst of drug release followed by a slow sustained release” each time. The “number of eggs (CAM's) … (score 1-2)” value in series [4] (2.0% w/w in PCL pellet) was “Necrosis”. The “generalized cytotoxicity in the CAM” value in series [4] (drug-loaded PCL pellets) was “some evidence of necrosis in non-capillary cells and membrane thinning”. The “inhibition of angiogenesis” value in series [4] (setting [10]) is listed as “partial inhibition of angiogenesis in a number of CAM's”.

For the molecule `CC1(C)CCC2=C(O1)c1ccccc1C(=O)C2=O` [beta-lapachone], in the series with stromelycin gene (1×10^−5 M), the “IL-1 induced stromelycin gene expression” value is given as “almost completely inhibited”. Moreover, the IC50 in series [1] (A7R5, 48 hours exposure) came to 6.3 µM; in series [3] (48 hours exposure), 5.6 µM. The drug release profile entry in series [2] (setting [6]) and in series [2] (setting [8]) was “initial burst of drug release followed by a slow sustained release” each time. The “number of eggs (CAM's) … (score 0)” value in series [4] (1.0% w/w in PCL pellet) and in series [4] (4.0% w/w in PCL pellet) was 4 throughout. In addition, the “number of eggs (CAM's) … (score 1-2)” value in series [4] (1.0% w/w in PCL pellet) was 2; in series [4] (4.0% w/w in PCL pellet), 11; in series [4] (60% in PCL pellet as printed), 10. Moreover, in series [4] (4.0% w/w in PCL pellet), the “number of eggs (CAM's) … (score 3)” value worked out at 6. Moreover, the “inhibition of angiogenesis” value in series [4] (6% w/w in PCL) is “partial to full inhibition of angiogenesis”; in series [4] (setting [10]) it was “inhibited angiogenesis in almost all CAM's”.
